The source of these data is patent US10329289B2, “6,7-dihydro-5H-pyrrolo[3,4-B]pyridin-5-one allosteric modulators of the M4 muscarinic acetylcholine receptor” (Merck Sharp & Dohme Corp., priority 2015, dated 2019).

This assay has as its target T1, human M4 muscarinic acetylcholine receptor (Homo sapiens, UniProt P08173).
T1 construct: expressed in transfected cells; host or cells: CHO-K1
T1 sequence (P08173 1-479): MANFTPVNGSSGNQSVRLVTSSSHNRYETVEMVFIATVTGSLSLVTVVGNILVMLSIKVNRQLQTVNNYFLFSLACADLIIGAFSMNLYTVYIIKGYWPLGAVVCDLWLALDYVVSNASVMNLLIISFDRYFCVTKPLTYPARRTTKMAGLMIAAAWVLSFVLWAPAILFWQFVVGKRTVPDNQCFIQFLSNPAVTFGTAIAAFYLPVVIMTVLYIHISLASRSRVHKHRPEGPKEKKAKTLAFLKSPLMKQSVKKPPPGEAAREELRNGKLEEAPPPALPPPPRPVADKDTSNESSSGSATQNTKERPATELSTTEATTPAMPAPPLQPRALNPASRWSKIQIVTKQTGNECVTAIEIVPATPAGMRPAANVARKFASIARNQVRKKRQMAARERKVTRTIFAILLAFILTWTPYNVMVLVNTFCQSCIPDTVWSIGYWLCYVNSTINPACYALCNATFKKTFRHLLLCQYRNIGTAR
The experiment in a line: human FLIPR-based M4 PAM assay (Ca2+ mobilization, CHO-K1 cells with human M4 receptor and Gαqi5). The assay is classed as cell-based. The settings on record: acetylcholine at 20% of maximum response, read-out: M4 PAM IP. On the procedure:
In a typical experiment the M4 muscarinic acetylcholine receptor modulating activity of the compounds of the present invention was determined in accordance with the following experimental method. CHO-K1 cells stably transfected with human M4 receptor and chimeric G-protein Gαqi5 (Coward P, et al., Analytical Biochemistry, 270:242-248 (1999)) are thawed from liquid N2 storage, resuspended in growth medium, plated in black, clear bottom 384 well plates, and incubated 16-20 hours at 37° C., 5% CO2. On the day of assay, growth medium is removed, the cells are washed 2 times with wash buffer, and cells are incubated in dye loading buffer at 37° C., 5% CO2 for ˜1 hour. […] Next, 10 uL of acetylcholine is added (final concentration calculated so as to achieve 20% of the maximum acetycholine response), and the fluorescence reading is continued for 3.5 min. In some cases, a third addition of acetylcholine (final concentration calculated to achieve 70% of the maximal acetylcholine response) is performed. The resulting dose response curves are fit to a 4 parameter logistic equation and the final result is determined as the inflection point (IP) of the curve
CHO-K1 cells stably transfected with human M4 receptor and chimeric G-protein Gαqi5 are thawed from liquid N2 storage, resuspended in growth medium, plated in black, clear bottom 384 well plates, and incubated 16-20 hours at 37° C., 5% CO2.
On the day of assay, growth medium is removed, the cells are washed 2 times with wash buffer, and cells are incubated in dye loading buffer at 37° C., 5% CO2 for ˜1 h. […] Next, 10 uL of acetylcholine is added (final concentration calculated so as to achieve 20% of the maximum acetycholine response), and the fluorescence reading is continued for 3.5 min. In some cases, a third addition of acetylcholine (final concentration calculated to achieve 70% of the maximal acetylcholine response) is performed.
A general note: Calcium flux is commonly read through the fluorescence of an indicator in the cells.
Consider `Cc1cc2c(nc1N1CCC(Oc3ccc4c(c3)c(C)nn4C)CC1)CNC2=O` [Example 129, 2-(4-((1,3-dimethyl-1H-indazol-5-yl)oxy)piperidin-1-yl)-3-methyl-6,7-dihydro-5H-pyrrolo[3,4-b]pyridin-5-one], for which the EC50 stood at 1090 nM.
`Cc1cc2c(nc1N1CCC(Oc3cncc(F)c3)CC1)CNC2=O` [Example 103, 2-(4-((5-fluoropyridin-3-yl)oxy)piperidin-1-yl)-3-methyl-6,7-dihydro-5H-pyrrolo[3,4-b]pyridin-5-one]: the EC50 was 138 nM.
Under `COc1ccc(O[C@H]2CCN(c3nc4c(cc3C)C(=O)NC4)C[C@H]2C)cn1` [Example 29B, 2-((3R,4S)-4-((6-methoxypyridin-3-yl)oxy)-3-methylpiperidin-1-yl)-3-methyl-6,7-dihydro-5H-pyrrolo[3,4-b]pyridin-5-one] stands 30000 nM; under `Cc1cc2c(nc1N1CCC(Oc3ccnc(CO)c3)CC1)CNC2=O` [Example 152, 2-(4-((2-(hydroxymethyl)pyridin-4-yl)oxy)piperidin-1-yl)-3-methyl-6,7-dihydro-5H-pyrrolo[3,4-b]pyridin-5-one], 1150 nM; under `CCc1cc2c(nc1N1CCC(Oc3cnc4c(c3)COC4)CC1)CNC2=O` [Example 212A, 2-(4-((5,7-dihydrofuro[3,4-b]pyridin-3-yl)oxy)piperidin-1-yl)-3-ethyl-6,7-dihydro-5H-pyrrolo[3,4-b]pyridin-5-one], 116 nM.
The result for `Cc1c(N2CCC(Oc3ccc4c(c3)COC4)CC2)nc2c(c1C)C(=O)N(C)[C@H]2CO` (single isomer, unassigned) [Example 337B] reads 867 nM.
Under `Cc1cc2c(nc1N1CC[C@@H](Oc3cccnc3)[C@@H](F)C1)CNC2=O` (single isomer, unassigned) [Example 166, 2-((3S,4R) or (3R,4S)-3-fluoro-4-(pyridin-3-yloxy)piperidin-1-yl)-3-methyl-6,7-dihydro-5H-pyrrolo[3,4-b]pyridin-5-one] stands 90 nM.
Take `Cc1cc2c(nc1N1CCC(Oc3cnc4c(c3)COCC4)CC1)CN(C)C2=O` [Example 53, 2-(4-((7,8-dihydro-5H-pyrano[4,3-b]pyridin-3-yl)oxy)piperidin-1-yl)-3,6-dimethyl-6,7-dihydro-5H-pyrrolo[3,4-b]pyridin-5-one]: the EC50 amounted to 449 nM.
Under `Cc1cc2c(nc1N1CC[C@@H](Oc3ccc4c(c3)COC4)[C@@H](F)C1)CNC2=O` [Example 40, 2-((3S,4R)-4-((1,3-dihydro-2-benzofuran-5-yl)oxy)-3-fluoropiperidin-1-yl)-3-methyl-6,7-dihydro-5H-pyrrolo[3,4-b]pyridin-5-one] stands 17 nM; under `COc1ccc(OC2CCN(c3nc4c(cc3C)C(=O)N(CC3COC3)C4)CC2)cn1` [Example 250A, 2-(4-((6-methoxypyridin-3-yl)oxy)piperidin-1-yl)-3-methyl-6-(oxetan-3-ylmethyl)-6,7-dihydro-5H-pyrrolo[3,4-b]pyridin-5-one], 70 nM; under `Cc1cc2c(nc1N1CCC(Oc3ccc4c(ccn4C)c3)CC1)CNC2=O` [Example 27, 3-methyl-2-(4-((1-methyl-1H-indol-5-yl)oxy)piperidin-1-yl)-6,7-dihydro-5H-pyrrolo[3,4-b]pyridin-5-one], 43 nM.
Under `COc1ccc(O[C@@H]2CCN(c3nc4c(cc3C)C(=O)NC4)C[C@@H]2F)cn1` [Example 164, 2-((3S,4R)-3-fluoro-4-((6-methoxypyridin-3-yl)oxy)piperidin-1-yl)-3-methyl-6,7-dihydro-5H-pyrrolo[3,4-b]pyridin-5-one] stands 82 nM; under `Cc1cc2c(nc1N1CCC(Oc3ccc4c(c3)CCOC4)CC1)CNC2=O` [Example 207, 2-(4-(isochroman-6-yloxy)piperidin-1-yl)-3-methyl-6,7-dihydro-5H-pyrrolo[3,4-b]pyridin-5-one], 30 nM.
